The test system of assay [1] is HCT-116 (colon) carcinoma cell line. In words: antiproliferative growth assay, HCT-116. It is filed as cell-based, human. The conditions noted are these: for IC50: HCT116 colon carcinoma cells; for potency against colon cancer relative to the standard reference (5-fluorouracil): HCT-116, compared with 5-fluorouracil.
The subject of assay [2] is MCF7 (breast) carcinoma cell line. The assay can be described thus: antiproliferative growth assay, MCF7. The format is cell-based, human.
The subject of assay [3] is PC3 (prostate) carcinoma cell line. The assay can be described thus: antiproliferative growth assay, PC3. The format is cell-based, human. The conditions noted are these: PC3 prostate carcinoma cells. The source says: It is noteworthy that most of these compounds belong to the thiazolidine library.
Assay [4] addresses EGFR (Homo sapiens, UniProt P00533). In words: EGFR inhibition assay (Alpha Screen system). The conditions noted are these: Gefitinib as standard. It is filed as biochemical.
Assay [5] relates to MCF7 cells. In words: cell cycle analysis by flow cytometry. It is filed as cell-based, human. The conditions noted are these: 24 hours. The source says: Typical neoplastic cells evade apoptosis since accumulation of mutations block apoptosis pathways. It was confirmed that the induction of apoptosis upon effective cancer treatment. It is an important regulatory mechanism in cell growth, maturation and death and is associated with a variety of human diseases, including tumors. Chemotherapy agents may lead to an autophagic response, which is one possible method of inducing apoptosis. There is a unique association between autophagy and apoptosis. While chemotherapeutic drugs induce autophagy, cell cycle arrest and cell senescence, it is imperative the induction of apoptosis and permanent removal of neoplastic cells for effective cancer treatment. Studies on the effect of compound 10 on cell cycle development and induction of apoptosis in cancer MCF7 cells was carried out. […] The cells were analyzed by flow cytometry technique.
In general terms: A flow cytometer gives signals particle by particle.

Assay [6] relates to MCF7 cells. In words: apoptosis assay, Annexin V/PI. It is filed as cell-based, human. The conditions noted are these: 24 h. The text has this: It has been detected that the early and late apoptosis produced by the examined compound 10 certainly indicated its capability to induce significant levels of apoptosis with necrosis percent 3.14.
Setting [7] is: Homo sapiens, MCF7, MCF7 breast carcinoma cells.

Entries after “also recorded” stand apart in the source; their conditions may differ. Where only a bound is given, the exact number is not on record here.

Regarding `O=C(O)c1ccc(/N=C2\S/C(=C/c3ccc(O)cc3O)C(=O)N2C(=O)c2ccccc2)cc1` [Compound 6c, 4-((3-benzoyl-5-(2,4-dihydroxybenzylidene)-4-oxothiazolidin-2-ylidene)amino) benzoic acid], the IC50 – broadly, the midpoint of a concentration-inhibition curve – is more than 100 µM in assay [1] (Homo sapiens, HCT-116); more than 100 µM in assay [2] (setting [7]); more than 100 µM in assay [3] (Homo sapiens).

For `O=C(O)c1ccc(/N=C2\S/C(=C/c3cc(/N=N/c4ccccc4)ccc3O)C(=O)N2C(=O)c2ccccc2)cc1` [Compound 9a, 4-((3-benzoyl-5-(2-hydroxy-5-((E)-phenyldiazenyl)benzylidene)-4-oxothiazolidin-2-ylidene)amino) benzoic acid], the IC50 in assay [1] (Homo sapiens, HCT-116) was more than 100 µM; in assay [2] (setting [7]), more than 100 µM; in assay [3] (Homo sapiens), more than 100 µM.

In assay [4], “4-(5-(((1H-1,2,4-triazol-3-yl)amino) methylene)-3-benzoyl-4-oxothiazolidin-2-ylidene)amino)benzoic acid [Compound 11]” yielded an IC50 of 0.0739 ± 0.0016 µM.

As to `CN(C)c1ccc(/C=C2/S/C(=N\c3ccc(C(=O)O)cc3)N(C(=O)c3ccccc3)C2=O)cc1` [Compound 6i, 4-((3-benzoyl-5-(4-(dimethylamino)benzylidene)-4-oxothiazolidin-2-ylidene)amino) benzoic acid], the IC50 in assay [1] (Homo sapiens, HCT-116) is more than 100 µM; in assay [2] (setting [7]), more than 100 µM; in assay [3] (Homo sapiens) it was more than 100 µM.

Consider `O=C(O)c1ccc(/N=C2\S/C(=C/c3ccc4ccccc4c3)C(=O)N2C(=O)c2ccccc2)cc1` [Compound 6g, 4-((3-benzoyl-5-(naphthalen-2-ylmethylene)-4-oxothiazolidin-2-ylidene)amino) benzoic acid], for which the IC50 in assay [1] (Homo sapiens, HCT-116) was more than 100 µM; in assay [2] (setting [7]), more than 100 µM; in assay [3] (Homo sapiens), more than 100 µM.

As for `COc1ccc(/N=N/c2ccc(O)c(/C=C3/S/C(=N\c4ccc(C(=O)O)cc4)N(C(=O)c4ccccc4)C3=O)c2)cc1` [Compound 9b, 4-((3-benzoyl-5-(2-hydroxy-5-((4-methoxyphenyl)diazenyl)benzylidene)-4-oxothiazolidin-2-ylidene)amino)benzoic acid], the IC50 in assay [1] (Homo sapiens, HCT-116) was more than 100 µM; in assay [2] (setting [7]) it was more than 100 µM; in assay [3] (Homo sapiens) it was more than 100 µM.

Take `COc1cc(/C=C2/S/C(=N\c3ccc(C(=O)O)cc3)N(C(=O)c3ccccc3)C2=O)cc(OC)c1` [Compound 6e, 4-((3-benzoyl-5-(3,5-dimethoxybenzylidene)-4-oxothiazolidin-2-ylidene)amino) benzoic acid]: the 50% inhibitory concentration (IC50) in assay [1] (Homo sapiens, HCT-116) is more than 100 µM; in assay [2] (setting [7]) it was more than 100 µM; in assay [3] (Homo sapiens), more than 100 µM.

With `O=C(O)c1ccc(/N=C2\S/C(=C/c3ccccc3)C(=O)N2C(=O)c2ccccc2)cc1` [Compound 6a, 4-((3-benzoyl-5-(benzylidene)-4-oxothiazolidin-2-ylidene)amino)benzoic acid], the IC50 in assay [1] (Homo sapiens, HCT-116) is more than 100 µM; in assay [2] (setting [7]) it was more than 100 µM; in assay [3] (Homo sapiens), more than 100 µM.

Turning to `COc1ccc(/C=C2/S/C(=N\c3ccc(C(=O)O)cc3)N(C(=O)c3ccccc3)C2=O)cc1` [Compound 6d, 4((3-benzoyl-5-(4-methoxybenzylidene)-4-oxothiazolidin-2-ylidene)amino) benzoic acid], in assay [1], the “potency against colon cancer relative to the standard reference (5-fluorouracil)” value was “higher potency against colon cancer relative to the standard reference”. The half-inhibitory concentration (IC50) in assay [1] (Homo sapiens, HCT-116) was 12.4 µM; in assay [2] (MCF7 breast carcinoma cells), 34.4 µM; in assay [3] (Homo sapiens), more than 100 µM; in assay [4], 0.134 ± 0.0029 µM.

Take `CN(C)/C=C1\S/C(=N\c2ccc(C(=O)O)cc2)N(C(=O)c2ccccc2)C1=O` [Compound 10, 4-((3-benzoyl-5-((dimethylamino)methylene)-4-oxothiazolidin-2-ylidene)amino) benzoic acid]: in assay [1], the “potency against colon cancer relative to the standard reference (5-fluorouracil)” value is reported as “higher potency against colon cancer relative to the standard reference”. It took 12.2 µM to reach half-maximal inhibition in assay [1] (Homo sapiens, HCT-116) (IC50). Half-maximal inhibition in assay [2] (setting [7]) (IC50) required 17.4 µM. Also, the IC50 in assay [3] (Homo sapiens) was found to be 67.4 µM. For the same compound, in assay [5], the “Comment (cell cycle result)” value is on record as “cell cycle arrest at G1/S phase; also recorded: PreGlapoptosis&Cell”. In addition, in assay [5] (at IC50 concentration 12.17 μM), the “% G0-G1” value came out at 38.71%, the “% G2/M” value is given as 28.85%, the “% Pre-G1” value was found to be 26.15% and the “% S” value stood at 32.44%. Also, in assay [6], the “Apoptosis Early” value is listed as 6.41%, the “Apoptosis Late” value came out at 16.6% and the Necrosis was found to be 3.14%.

`O=C(O)c1ccc(/N=C2\S/C(=C/c3c[nH]c4ccccc34)C(=O)N2C(=O)c2ccccc2)cc1` [Compound 6h, 4-((5-((1H-indol-3-yl)methylene)-3-benzoyl-4-oxothiazolidin-2-ylidene)amino) benzoic acid]: the half-inhibitory concentration (IC50) in assay [1] (Homo sapiens, HCT-116) is more than 100 µM; in assay [2] (setting [7]) it was more than 100 µM; in assay [3] (Homo sapiens) it was more than 100 µM.

For the compound “4-((3-benzoyl-5-(5-((4-chlorophenyl)diazenyl)-2-hydroxybenzylidene)-4-oxothiazolidin-2-ylidene)amino)benzoic acid [Compound 9c]”, the IC50 in assay [1] was 19.6 µM; in assay [2] (MCF7 breast carcinoma cells), 38 µM; in assay [3], more than 100 µM; in assay [4] it was 0.168 ± 0.0036 µM. In assay [1], the “potency against colon cancer relative to the standard reference (5-fluorouracil)” value is given as “higher potency against colon cancer relative to the standard reference”.

For `O=C(O)c1ccc(/N=C2\SCC(=O)N2C(=O)c2ccccc2)cc1` [Compound 4, 4-((3-benzoyl-4-oxothiazolidin-2-ylidene)amino)benzoic acid], the IC50 was more than 100 µM in assay [1] (Homo sapiens, HCT-116); more than 100 µM in assay [2] (setting [7]); more than 100 µM in assay [3] (Homo sapiens).

In the case of `O=C(O)c1ccc(/N=C2\S/C(=C/c3ccc(O)cc3)C(=O)N2C(=O)c2ccccc2)cc1` [Compound 6b, 4-((3-benzoyl-5-(4-hydroxybenzylidene)-4-oxothiazolidin-2-ylidene)amino)benzoic acid], the IC50 was more than 100 µM in assay [1] (Homo sapiens, HCT-116); more than 100 µM in assay [2] (setting [7]); more than 100 µM in assay [3] (Homo sapiens).

In the case of “4-((3-benzoyl-5-((dimethylamino)methylene)-4-oxothiazolidin-2-ylidene)amino) benzoic acid [Compound 10]”, in assay [4], half-maximal inhibition (IC50) was put at 0.0674 µM.

As for `O=C(O)c1ccc(/N=C2\S/C(=C/Nc3nc[nH]n3)C(=O)N2C(=O)c2ccccc2)cc1` [Compound 11], the “potency against colon cancer relative to the standard reference (5-fluorouracil)” value in assay [1] is recorded as “higher potency against colon cancer relative to the standard reference”. Also, the IC50 in assay [1] (Homo sapiens, HCT-116) came out at 7.17 µM. This compound registered an IC50 in assay [2] (setting [7]) of 11.7 µM. Besides, the IC50 in assay [3] (Homo sapiens) turned out to be 98.5 µM. In assay [6], the “Apoptosis Early” value was 6.41%, the “Apoptosis Late” value was 16.6%, the “Apoptosis Total” value worked out at 26.15% and the Necrosis came out at 3.14%.

The values above are taken from patent publication US12145930B1, “4-thiazolidinone derivatives as EGFR inhibitors for anti-tumor activity” (KING FAISAL UNIVERSITY, priority 2024, dated 2024).
